The values below come from patent US5206239A, “Pyrroloazepine derivatives” (Suntory Limited, priority 1990, dated 1993).

Molecules are shown by their SMILES. Where two headings read alike, the source gives them in different places.

Assay [1] deals with α1. Nature of the assay: Anti-α1 action: inhibition of norepinephrine-induced tonic contraction of isolated guinea pig thoracic aorta. Set-up: species or system guinea pig (Hartley, male). As to conditions: tonic contraction induced by 10^-5 M norepinephrine = 100%. On the procedure: (§1) With respect to the compounds of the present invention, their anti-α1 action and anti-serotonin action were investigated by the testing methods which will be described below.
The thoracic aorta of each Hartley male guinea pig (body weight: 300-500 g) was excised. […] Taking the tonic contraction induced by 10^-5 M norepinephrine (NE) as 100%, the percent contractions upon addition of each test drug at 10^-8 and 10^-7 M were determined as anti-α1 action.

Assay [2] is described as follows: Anti-serotonin action (anti-5-HT action): inhibition of serotonin-induced phasic contraction of isolated guinea pig superior mesenteric artery. Details: species or system guinea pig (Hartley, male). As to conditions: phasic contraction induced by 10^-5 M serotonin = 100%, read-out: Anti 5-HT action (percent contraction, % of Control); for remaining activity at 1 µM: 10^-6 M test drug; for remaining activity at 0.1 µM: 10^-7 M test drug. How it is done:
as §1
Taking the phasic contraction induced by 10^-5 M serotonin as 100%, the percent contractions in the presence of each test drug at 10^-7 and 10^-6 M were determined as anti-5-HT action.

As for `O=C1CCN(Cc2ccccc2)C(=O)c2c1ccn2CCCCN1CCC(c2ccccc2)CC1` [Compound No. 48, 7-Benzyl-1-[4-(4-phenylpiperidin-1-yl)butyl]-6,7-dihydropyrrolo[2,3-c]azepine-4,8(1H,5H)-dione], the “Anti α1 action (percent contraction, % of Control)” value in assay [1] (10^-7 M test drug, 0.1 µM) was 37.7 % of Control. For the same compound, the “Anti α1 action (percent contraction, % of Control)” value in assay [1] (10^-8 M test drug, 0.01 µM) is listed as 77.4 % of Control. For the same compound, in assay [2], the remaining activity at 1 µM turned out to be 49% and the remaining activity at 0.1 µM was 88%.
Regarding `CN1CCC(=NO)c2ccn(CCCCN3CCC(c4ccccc4)CC3)c2C1=O` [Compound No. 51, 4-hydroxyimino-7-methyl-1-[4-(4-phenylpiperidin-1-yl)butyl]-6,7-dihydropyrrolo-[2,3-c]azepin-8(1H,5H)-one], the “Anti α1 action (percent contraction, % of Control)” value in assay [1] (10^-7 M test drug, 0.1 µM) is 30.8 % of Control. In addition, the “Anti α1 action (percent contraction, % of Control)” value in assay [1] (10^-8 M test drug, 0.01 µM) is recorded as 74.9 % of Control. In addition, in assay [2], the remaining activity at 1 µM amounted to 54.4% and the remaining activity at 0.1 µM was determined as 84.4%.
As to `CN1CCC(=O)c2ccn(CCCCN3CCC(C(O)(c4ccc(F)cc4)c4ccc(F)cc4)CC3)c2C1=O` [Compound No. 54, 1-[4-[4-[Bis(4-fluorophenyl)hydroxymethyl]-piperidin-1-yl]butyl]-7-methyl-6,7-dihydropyrrolo[2,3-c]azepine-4,8(1H,5H)-dione], the “Anti α1 action (percent contraction, % of Control)” value in assay [1] (10^-7 M test drug, 0.1 µM) was 26.0 % of Control. The “Anti α1 action (percent contraction, % of Control)” value in assay [1] (10^-8 M test drug, 0.01 µM) is 90.4 % of Control. For the same compound, in assay [2], the remaining activity at 1 µM was 14.7% and the remaining activity at 0.1 µM is 62.9%.
Regarding `CN1CCC(=O)c2ccn(CCCCN3CCC(C(=O)c4ccc(F)cc4)CC3)c2C1=O` [Compound No. 60, 1-[4-[4-(4-fluorobenzoyl)piperidin-1-yl]butyl]-7-methyl-6,7-dihydropyrrolo[2,3-c]azepine-4,8(1H,5H)-dione], in assay [1] (10^-7 M test drug, 0.1 µM), the “Anti α1 action (percent contraction, % of Control)” value is given as 20.5 % of Control. In addition, the “Anti α1 action (percent contraction, % of Control)” value in assay [1] (10^-8 M test drug, 0.01 µM) was 43.9 % of Control. Further, in assay [2] (guinea pig), the remaining activity at 1 µM was found to be 11.8% and the remaining activity at 0.1 µM worked out at 62.9%.
As for `CN1CCC(=NO)c2ccn(CCCCN3CCC(C(=O)c4ccc(F)cc4)CC3)c2C1=O` [Compound No. 61, 1-[4-[4-(4-fluorobenzoyl)piperidin-1-yl]butyl]-4-hydroxyimino-7-methyl-6,7-dihydropyrrolo[2,3-c]azepin-8-(1H,5H)-one], in assay [1] (10^-7 M test drug, 0.1 µM), the “Anti α1 action (percent contraction, % of Control)” value is listed as 21.4 % of Control. Further, the “Anti α1 action (percent contraction, % of Control)” value in assay [1] (10^-8 M test drug, 0.01 µM) is 44.7 % of Control. Further, in assay [2], the remaining activity at 1 µM came out at 4.1% and the remaining activity at 0.1 µM amounted to 12.1%.
With `CN1CCC(=NO)c2ccn(CCCCN3CCC(C(=O)c4ccc(F)cc4)CC3)c2C1=O.Cc1ccc(S(=O)(=O)O)cc1` [Compound No. 62, 1-[4-[4-(4-fluorobenzoyl)piperidin-1-yl]butyl]-4-hydroxyimino-7-methyl-6,7-dihydropyrrolo[2,3-c]azepin-8(1H,5H)-one p-toluenesulfonate], the “Anti α1 action (percent contraction, % of Control)” value is given as 17.1 % of Control in assay [1] (10^-7 M test drug, 0.1 µM) and 26.8 % of Control in assay [1] (10^-8 M test drug, 0.01 µM). In addition, in assay [2] (guinea pig), the remaining activity at 1 µM amounted to 8.2%. The remaining activity at 0.1 µM in assay [2] (guinea pig) worked out at 47.4%.
For `CCN1CCC(=NO)c2ccn(CCCCN3CCC(C(=O)c4ccc(F)cc4)CC3)c2C1=O` [Compound No. 65, 7-ethyl-1-[4-[4-(4-fluorobenzoyl)-piperidin-1-yl]butyl]-4-hydroxyimino-6,7-dihydro-pyrrolo[2,3-c]azepin-8-(1H,5H)-one], the “Anti α1 action (percent contraction, % of Control)” value in assay [1] (10^-7 M test drug, 0.1 µM) is on record as 9.9 % of Control. The “Anti α1 action (percent contraction, % of Control)” value in assay [1] (10^-8 M test drug, 0.01 µM) is reported as 19.5 % of Control. Also, in assay [2], the remaining activity at 1 µM was 3.6% and the remaining activity at 0.1 µM stood at 19.9%.
As for `O=C(c1ccc(F)cc1)C1CCN(CCCCn2ccc3c2C(=O)N(Cc2ccccc2)CCC3=NO)CC1` [Compound No. 66], the “Anti α1 action (percent contraction, % of Control)” value in assay [1] (10^-7 M test drug, 0.1 µM) is reported as 10.4 % of Control; in assay [1] (10^-8 M test drug, 0.01 µM) it was 19.3 % of Control. In assay [2], the remaining activity at 1 µM was 6.9%. In addition, the remaining activity at 0.1 µM in assay [2] amounted to 77.6%.
The matching figures for `CCCN1CCC(=NO)c2ccn(CCCCN3CCC(C(=O)c4ccc(F)cc4)CC3)c2C1=O` [Compound No. 75, 1-[4-[4-(4-Fluorobenzoyl)piperidin-1-yl]butyl]-4-hydroxyimino-7-propyl-6,7-dihydropyrrolo[2,3-c]-azepin-8(1H,5H)-one]: 17.9 % of Control, 37.0 % of Control, 8.2% and 12.9%.
`O=C1CCNC(=O)c2c1ccn2CCCCN1CCC(C(=O)c2ccc(F)cc2)CC1` [Compound No. 81, 1-[4-[4-(4-Fluorobenzoyl)piperidin-1-yl]butyl]-6,7-dihydropyrrolo[2,3-c]azepine-4,8(1H,5H)-dione]: the “Anti α1 action (percent contraction, % of Control)” value in assay [1] (10^-7 M test drug, 0.1 µM) is 28.9 % of Control. The “Anti α1 action (percent contraction, % of Control)” value in assay [1] (10^-8 M test drug, 0.01 µM) is recorded as 57.5 % of Control. In assay [2], the remaining activity at 1 µM is 14.3% and the remaining activity at 0.1 µM was found to be 57.1%.
With `CN1CCC(=NO)c2ccn(CCCCN3CCC(Oc4ccc(F)cc4)CC3)c2C1=O` [Compound No. 84, 1-[4-[4-(4-Fluorophenoxy)piperidin-1-yl]butyl]-4-hydroxyimino-7-methyl-6,7-dihydropyrrolo[2,3-c]-azepin-8(1H,5H)-one], the “Anti α1 action (percent contraction, % of Control)” value in assay [1] (10^-7 M test drug, 0.1 µM) is 67.0 % of Control. The “Anti α1 action (percent contraction, % of Control)” value in assay [1] (10^-8 M test drug, 0.01 µM) is reported as 86.5 % of Control. Besides, in assay [2], the remaining activity at 1 µM came out at 3.8% and the remaining activity at 0.1 µM was 60%.
On the same counts, the results for `CC(=O)ON=C1CCN(C)C(=O)c2c1ccn2CCCCN1CCC(C(=O)c2ccc(F)cc2)CC1` [Compound No. 91, 4-acetoxyimino-1-[4-[4-(4-fluorobenzoyl)piperidin-1-yl)butyl]-7-methyl-6,7-dihydropyrrolo[2,3-c]azepin-8(1H,5H)-one] are 35.5 % of Control, 58.2 % of Control, 10.3% and 16.1%.
With `CN1CCC(=NOC(=O)c2ccccc2)c2ccn(CCCCN3CCC(C(=O)c4ccc(F)cc4)CC3)c2C1=O` [Compound No. 92, 4-benzoyloxyimino-1-[4-[4-(4-fluorobenzoylpiperidin)-1-yl]butyl]-7-methyl-6,7-dihydropyrrolo[2,3-c]azepin-8(1H,5H)-one], in assay [1] (10^-7 M test drug, 0.1 µM), the “Anti α1 action (percent contraction, % of Control)” value is recorded as 21.5 % of Control. Also, the “Anti α1 action (percent contraction, % of Control)” value in assay [1] (10^-8 M test drug, 0.01 µM) is reported as 49.3 % of Control. For the same compound, in assay [2], the remaining activity at 1 µM was 12.5% and the remaining activity at 0.1 µM turned out to be 48.5%.
